One series has as its target Histone deacetylase 4 (Homo sapiens, UniProt P56524). Kind of series: Inhibition of human recombinant HDAC4 using fluorogenic HDAC substrate class 2a after 30 mins by fluorimetrc method.
Series [1] concerns the target T1, NAD-dependent protein deacetylase sirtuin-3, mitochondrial (Homo sapiens, UniProt Q9NTG7).
T1 sequence (Q9NTG7 whole entry): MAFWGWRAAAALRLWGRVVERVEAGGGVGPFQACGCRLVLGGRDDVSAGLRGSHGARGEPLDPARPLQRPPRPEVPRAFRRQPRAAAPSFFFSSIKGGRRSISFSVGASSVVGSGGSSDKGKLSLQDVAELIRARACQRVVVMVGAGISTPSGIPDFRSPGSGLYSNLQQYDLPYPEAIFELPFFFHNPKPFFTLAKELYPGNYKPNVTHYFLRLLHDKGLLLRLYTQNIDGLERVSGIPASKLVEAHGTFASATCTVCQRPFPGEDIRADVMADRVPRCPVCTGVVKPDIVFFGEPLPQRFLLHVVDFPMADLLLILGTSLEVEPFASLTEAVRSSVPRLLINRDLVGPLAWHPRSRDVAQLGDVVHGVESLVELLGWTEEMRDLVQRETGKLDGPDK
Kind of series: Inhibition of human recombinant SIRT3 using fluoro-lysine sirtuin 2 deacetylase substrate after 45 mins by fluorimetrc method.

Series [2] addresses T2, Histone deacetylase 1 (Homo sapiens, UniProt Q13547). Nature of the series: Inhibition of human recombinant HDAC1 using Fluor de Lys as substrate after 2 hrs by fluorescence method.
Series [3] in a line: Clearance in human hepatocytes assessed per million cells at 1 uM after 5 to 90 mins by LC-MS/MS analysis. Format: ADME, cell-based, Hepatocyte. Conditions: read-out: CLH.
The target of series [4] is T2, Histone deacetylase 1. Kind of series: Inhibition of human recombinant HDAC1 using fluorogenic HDAC substrate after 15 mins by fluorimetrc method.
Series [5] addresses T3, NAD-dependent protein deacetylase sirtuin-1 (Homo sapiens, UniProt Q96EB6).
T3 sequence (Q96EB6 whole entry): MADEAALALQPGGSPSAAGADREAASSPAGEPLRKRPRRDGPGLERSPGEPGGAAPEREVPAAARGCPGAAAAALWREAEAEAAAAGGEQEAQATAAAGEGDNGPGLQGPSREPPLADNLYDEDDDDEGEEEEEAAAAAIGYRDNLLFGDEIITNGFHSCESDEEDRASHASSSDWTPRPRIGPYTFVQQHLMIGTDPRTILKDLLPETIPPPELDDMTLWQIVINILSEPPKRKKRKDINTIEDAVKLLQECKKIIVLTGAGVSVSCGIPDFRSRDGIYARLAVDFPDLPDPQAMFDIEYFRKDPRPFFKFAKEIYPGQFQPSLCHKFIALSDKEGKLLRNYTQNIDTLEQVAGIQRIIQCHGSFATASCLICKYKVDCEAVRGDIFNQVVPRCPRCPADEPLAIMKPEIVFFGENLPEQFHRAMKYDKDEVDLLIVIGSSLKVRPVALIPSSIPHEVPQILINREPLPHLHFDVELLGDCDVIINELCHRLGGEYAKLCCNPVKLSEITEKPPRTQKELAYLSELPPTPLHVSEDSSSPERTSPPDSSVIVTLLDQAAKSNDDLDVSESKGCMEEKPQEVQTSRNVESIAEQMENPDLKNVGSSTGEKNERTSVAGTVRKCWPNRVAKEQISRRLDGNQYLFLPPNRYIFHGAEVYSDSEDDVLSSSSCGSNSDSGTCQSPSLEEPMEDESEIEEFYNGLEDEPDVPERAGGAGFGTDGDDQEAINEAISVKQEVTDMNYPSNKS
Kind of series: Inhibition of human recombinant SIRT1 using fluorogenic HDAC substrate after 20 mins by fluorimetrc method.

Series [6] deals with T4, Protein deacetylase HDAC6 (Homo sapiens, UniProt Q9UBN7).
T4 sequence (Q9UBN7 whole entry): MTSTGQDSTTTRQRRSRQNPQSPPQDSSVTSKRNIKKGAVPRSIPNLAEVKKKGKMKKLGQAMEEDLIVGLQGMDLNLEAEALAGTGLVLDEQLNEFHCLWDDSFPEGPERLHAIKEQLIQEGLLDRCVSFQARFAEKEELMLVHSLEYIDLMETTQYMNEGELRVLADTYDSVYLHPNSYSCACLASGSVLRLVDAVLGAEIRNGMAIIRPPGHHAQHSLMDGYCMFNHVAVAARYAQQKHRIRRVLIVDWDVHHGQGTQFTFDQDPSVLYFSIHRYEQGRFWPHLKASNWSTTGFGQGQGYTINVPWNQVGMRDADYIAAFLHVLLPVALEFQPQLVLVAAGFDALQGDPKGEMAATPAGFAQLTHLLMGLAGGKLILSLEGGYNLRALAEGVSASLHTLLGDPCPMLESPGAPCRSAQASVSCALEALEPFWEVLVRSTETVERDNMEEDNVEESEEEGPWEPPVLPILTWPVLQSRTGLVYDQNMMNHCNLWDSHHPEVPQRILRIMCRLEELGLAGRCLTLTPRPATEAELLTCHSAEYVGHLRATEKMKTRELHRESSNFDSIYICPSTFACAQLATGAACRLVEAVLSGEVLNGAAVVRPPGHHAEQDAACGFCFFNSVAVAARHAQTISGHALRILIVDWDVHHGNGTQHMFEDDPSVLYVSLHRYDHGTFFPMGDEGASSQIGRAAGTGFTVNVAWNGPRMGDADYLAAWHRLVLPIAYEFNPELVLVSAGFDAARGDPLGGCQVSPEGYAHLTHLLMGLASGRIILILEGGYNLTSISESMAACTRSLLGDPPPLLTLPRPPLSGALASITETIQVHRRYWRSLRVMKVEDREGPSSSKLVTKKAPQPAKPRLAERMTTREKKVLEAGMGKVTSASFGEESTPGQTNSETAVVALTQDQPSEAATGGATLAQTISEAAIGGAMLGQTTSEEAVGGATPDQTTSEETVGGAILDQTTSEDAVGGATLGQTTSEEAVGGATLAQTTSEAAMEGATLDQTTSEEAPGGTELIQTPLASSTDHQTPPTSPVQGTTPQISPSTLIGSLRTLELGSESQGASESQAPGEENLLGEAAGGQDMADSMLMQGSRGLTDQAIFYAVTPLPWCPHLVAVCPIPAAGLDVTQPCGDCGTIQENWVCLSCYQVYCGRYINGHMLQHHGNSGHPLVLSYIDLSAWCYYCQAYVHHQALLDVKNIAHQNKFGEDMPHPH
Kind of series: Inhibition of human recombinant HDAC6 using fluorogenic HDAC substrate after 30 mins by fluorimetrc method.

Another series deals with Histone deacetylase 9 (Homo sapiens, UniProt Q9UKV0). Nature of the series: Inhibition of human recombinant HDAC9 using fluorogenic HDAC substrate class 2a after 30 mins by fluorimetrc method.
The nature of series [7]: Solubility in pH 7.4 phosphate buffer solution at 100 uM after 24 hrs by HPLC method. Format: physicochemical. The conditions noted are these: phosphate buffer, pH 7.4.

The record followed here is ChEMBL document CHEMBL4229543, “Squaramides as novel class I and IIB histone deacetylase inhibitors for topical treatment of cutaneous t-cell lymphoma” (Bioorg Med Chem Lett, 2018).

Values after ≈ are worked out from the molar mass of the structure shown.

T2 sequence (Q13547 whole entry): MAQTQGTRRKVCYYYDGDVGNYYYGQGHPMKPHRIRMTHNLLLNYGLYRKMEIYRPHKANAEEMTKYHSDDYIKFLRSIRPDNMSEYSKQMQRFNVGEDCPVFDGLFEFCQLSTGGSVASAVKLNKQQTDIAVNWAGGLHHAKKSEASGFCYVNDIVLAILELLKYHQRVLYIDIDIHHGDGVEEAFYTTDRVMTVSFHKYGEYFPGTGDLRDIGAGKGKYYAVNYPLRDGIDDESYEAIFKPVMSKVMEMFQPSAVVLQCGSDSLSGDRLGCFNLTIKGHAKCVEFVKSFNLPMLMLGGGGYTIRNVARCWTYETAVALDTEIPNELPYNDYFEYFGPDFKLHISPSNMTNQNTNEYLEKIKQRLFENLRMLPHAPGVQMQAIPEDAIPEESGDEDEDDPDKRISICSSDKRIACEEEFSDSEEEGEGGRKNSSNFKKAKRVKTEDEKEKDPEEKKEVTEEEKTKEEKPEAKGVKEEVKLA
Histone deacetylase 9, sequence (Q9UKV0 whole entry): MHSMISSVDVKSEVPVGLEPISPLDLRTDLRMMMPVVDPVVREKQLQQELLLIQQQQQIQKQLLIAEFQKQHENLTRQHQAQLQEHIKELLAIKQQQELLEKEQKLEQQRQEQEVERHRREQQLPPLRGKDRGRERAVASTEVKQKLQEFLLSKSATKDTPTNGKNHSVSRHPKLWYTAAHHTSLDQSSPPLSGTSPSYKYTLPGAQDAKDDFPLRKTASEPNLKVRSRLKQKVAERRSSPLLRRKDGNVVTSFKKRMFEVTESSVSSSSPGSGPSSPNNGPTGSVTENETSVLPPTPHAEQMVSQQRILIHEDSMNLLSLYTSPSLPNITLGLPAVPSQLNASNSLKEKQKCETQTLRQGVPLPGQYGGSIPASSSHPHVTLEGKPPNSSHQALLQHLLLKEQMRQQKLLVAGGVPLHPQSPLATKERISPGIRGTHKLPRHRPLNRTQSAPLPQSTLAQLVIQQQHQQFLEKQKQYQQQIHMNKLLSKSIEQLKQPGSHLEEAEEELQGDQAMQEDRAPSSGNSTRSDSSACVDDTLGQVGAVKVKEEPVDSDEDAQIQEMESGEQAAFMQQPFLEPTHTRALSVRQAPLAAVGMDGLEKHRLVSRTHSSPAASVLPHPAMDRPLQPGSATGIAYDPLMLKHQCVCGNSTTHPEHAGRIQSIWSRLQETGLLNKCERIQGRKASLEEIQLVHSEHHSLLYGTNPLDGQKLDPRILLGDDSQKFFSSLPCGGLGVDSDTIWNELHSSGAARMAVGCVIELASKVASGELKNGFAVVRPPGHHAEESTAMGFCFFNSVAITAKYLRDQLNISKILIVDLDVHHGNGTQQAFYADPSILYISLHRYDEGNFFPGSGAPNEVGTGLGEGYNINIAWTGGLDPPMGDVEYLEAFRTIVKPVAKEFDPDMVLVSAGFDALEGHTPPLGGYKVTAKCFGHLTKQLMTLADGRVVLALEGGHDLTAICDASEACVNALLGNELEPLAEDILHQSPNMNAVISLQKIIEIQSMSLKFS
Histone deacetylase 4, sequence (P56524 whole entry): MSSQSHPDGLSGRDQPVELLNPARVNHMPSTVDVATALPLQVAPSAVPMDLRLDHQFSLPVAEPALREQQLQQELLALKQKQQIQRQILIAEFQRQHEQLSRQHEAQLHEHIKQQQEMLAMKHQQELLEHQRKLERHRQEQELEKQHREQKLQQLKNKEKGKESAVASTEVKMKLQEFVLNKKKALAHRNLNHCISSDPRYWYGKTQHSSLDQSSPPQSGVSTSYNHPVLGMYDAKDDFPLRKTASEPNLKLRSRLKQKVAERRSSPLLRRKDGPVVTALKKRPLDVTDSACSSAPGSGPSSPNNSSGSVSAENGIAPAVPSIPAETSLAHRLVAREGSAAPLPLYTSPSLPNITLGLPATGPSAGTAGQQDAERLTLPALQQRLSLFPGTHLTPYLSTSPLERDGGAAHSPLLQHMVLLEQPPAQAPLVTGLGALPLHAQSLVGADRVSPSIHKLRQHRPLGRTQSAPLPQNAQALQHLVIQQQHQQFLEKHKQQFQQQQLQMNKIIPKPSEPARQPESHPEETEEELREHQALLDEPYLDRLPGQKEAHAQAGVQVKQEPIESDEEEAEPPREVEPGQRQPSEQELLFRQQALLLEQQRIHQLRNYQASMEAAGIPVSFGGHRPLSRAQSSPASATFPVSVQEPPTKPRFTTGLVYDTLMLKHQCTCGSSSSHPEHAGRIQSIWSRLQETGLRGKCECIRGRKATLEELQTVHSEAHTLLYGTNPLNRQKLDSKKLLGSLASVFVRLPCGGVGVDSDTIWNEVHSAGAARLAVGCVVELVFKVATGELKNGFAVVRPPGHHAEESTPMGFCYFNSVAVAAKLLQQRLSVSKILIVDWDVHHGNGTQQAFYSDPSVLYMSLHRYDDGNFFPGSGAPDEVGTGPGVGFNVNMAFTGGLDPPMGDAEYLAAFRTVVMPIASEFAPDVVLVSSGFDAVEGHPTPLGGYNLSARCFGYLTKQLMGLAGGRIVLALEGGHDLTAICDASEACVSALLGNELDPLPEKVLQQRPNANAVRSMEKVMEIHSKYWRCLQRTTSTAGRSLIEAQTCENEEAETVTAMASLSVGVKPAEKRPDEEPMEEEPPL

Broadly, the Ki is a dissociation constant, usually derived from enzyme kinetics or from competition with a known ligand. As usually defined, the solubility is how much of the substance goes into solution per volume. Low values mean a poorly soluble substance, high ones a readily soluble substance. Consider `COc1ccc(Nc2c(NCCCCCC(=O)NO)c(=O)c2=O)cc1`, for which the Ki is > 10000 nM on Histone deacetylase 4; > 10000 nM in [1]; 0.075 nM on Histone deacetylase 1 [2]; 0.34 nM on Histone deacetylase 1 [4]; > 10000 nM in series [5]; 23 nM in series [6]. The Ki on Histone deacetylase 9 was > 10000 nM. Further, the hepatocyte CLint at 1 µM in series [3] is < 4.7 µL/min/1e6 cells. The solubility at 24 h, 100 µM in series [7] came to 3.3 µM (≈ 1.15 µg/mL).
As for `CC(C)(CCCCC(=O)NO)Nc1c(Nc2ccc(C(F)(F)F)cc2)c(=O)c1=O`, the Ki at Histone deacetylase 4 was 3400 nM; in series [1], > 10000 nM; on Histone deacetylase 1 [2], 0.27 nM; on Histone deacetylase 1 [4], 1 nM; in series [5] it was > 10000 nM; in series [6] it was 130 nM. Besides, the Ki on Histone deacetylase 9 was > 10000 nM. Further, the hepatocyte CLint at 1 µM in series [3] came out at 29 µL/min/1e6 cells. The solubility at 24 h, 100 µM in [7] worked out at 36 µM (≈ 14.9 µg/mL).
With `CC(Nc1c(NCCCCCC(=O)NO)c(=O)c1=O)C12CC3CC(CC(C3)C1)C2` (configuration not stated), the inhibition constant (Ki) at Histone deacetylase 4 was > 10000 nM; in series [1] it was > 10000 nM; on Histone deacetylase 1 [2], 3.8 nM; on Histone deacetylase 1 [4], 48 nM; in series [5] it was > 10000 nM; in series [6] it was 130 nM. In addition, the inhibition constant (Ki) at Histone deacetylase 9 is > 10000 nM. In addition, in series [3], the hepatocyte CLint at 1 µM is < 5 µL/min/1e6 cells. This compound came in with a solubility at 24 h, 100 µM in series [7] of 24 µM (≈ 9.68 µg/mL).
